Data published in patent US6632456B1, “Compositions for inhalation” (AstraZeneca AB, priority 1994, dated 2003).
Where a name gives a salt, the structure may show the parent alone.

What was measured:
[1] = Enhancement of insulin uptake after powder inhalation in a rat model (blood glucose); assay type: in vivo, rats; conditions: for Effect (decrease in blood glucose level): rats, inhaled powder; for enhancement of polypeptide (insulin) absorption in the lung: rat model of Example 2, substance tested as enhancer
Experimental: Each of the compounds listed in Table I was tested for its ability to enhance uptake of a polypeptide (insulin) in a rat model.
Various forms of insulin were employed in the different trials: recombinant human, semisynthetic human or bovine. Each formulation was prepared as above, drying and processing the insulin/enhancer or insulin/enhancer/lactose solution to produce an inhalable powder. The powder was administered to rats by inhalation, and the blood glucose levels of the rats were subsequently monitored as a measure of insulin uptake. These levels were compared to the corresponding values obtained from rats which had inhaled insulin formulations without enhancer.

[2] = system: CaCo-2 epithelial cell monolayer; assay: CaCo-2 epithelial cell monolayer transport assay; assay type: in vitro ADME; conditions: for transport rate across the monolayer: CaCo-2, up to 16 mM sodium caprate
Experimental: A standard in vitro assay utilizing an epithelial cell line, CaCo-2 (available through the American Type Culture Collection (ATCC), Rockville, Md., USA), has been developed to assess the ability of various enhancer compounds to promote transport of markers across an epithelial cell monolayer, as a model for the epithelial cell layer which functions in the lung to separate the alveolus from the pulmonary blood supply.
In this assay, the enhancer and polypeptide or other marker are dissolved in aqueous solution at various proportions and/or concentrations, and applied to the apical side of the cell monolayer. After 60 min incubation at 37° C. and 95% RH (relative humidity), the amount of the marker on the basolateral side of the cells is determined, e.g., by use of a radioactively labelled marker.

[3] = set-up: species or system rats; conditions: rat, in vivo
Experimental: The mixture was milled in a Retsch mechanical mill to a particle size of mass median diameter 6.7 μm. The resultant powder was administered intratraceally in rats and the uptake of hGH compared with that of a powder, MMD 9.6 μm, comprising hGH and mannitol in the same proportions and prepared in the same way as above.

[4] = Enhancer:Insulin:lactose 2:4:94, vs insulin without enhancer
[5] = Enhancer:Insulin:lactose 4:4:92, vs insulin without enhancer
[6] = Enhancer:Insulin:lactose 25:75:0, vs insulin without enhancer

Compound	enhancement of polypeptide (insulin) absorption in the lung [1]	Effect (decrease in blood glucose level) [1, 5]	also measured
CCCCCCCCCC(=O)OC[C@H](COP(=O)([O-])OCC[N+](C)(C)C)OC(=O)CCCCCCCCC [Didecanoylphospatidylcholine]			Effect (decrease in blood glucose level) ([1]; Enhancer:Insulin:lactose 4:4:94, vs insulin without enhancer): −
CCCCCCCC(=O)OCC(COP(=O)([O-])OCC[N+](C)(C)C)OC(=O)CCCCCCC (centres unmarked) [Dioctanoylphosphatidylcholine]			Effect (decrease in blood glucose level) [1, 4]: (+)
CCCCCCCCOC1O[C@H](CO)[C@@H](O)[C@H](O)[C@H]1O (some centres unmarked) [Octylglucopyranoside]	some absorption enhancing properties	(+)	
CCCCCCCCCC(=O)[O-].[K+] [Potassium caprate]	effective		Effect (decrease in blood glucose level) ([1]; Enhancer:Insulin:lactose 27:73:0, vs insulin without enhancer): +
CCCCCCCC/C=C\CCCCCCCC(=O)[O-].[K+] [Potassium oleate]		+	
CCCCCCCCCC(=O)[O-].[Na+] [Sodium caprate]	perform well	+	amount of marker (mannitol) which appears on the basolateral side, insulin added ([2]; CaCo-2 monolayer, 1:3 sodium caprate:insulin by weight (FIG. 2)): This is true; amount of marker (mannitol) which appears on the basolateral side ([2]; CaCo-2 monolayer, 60 min, 37° C., up to 16 mM sodium caprate (FIG. 1)): dependent upon the concentration of enhancer used; Effect (decrease in blood glucose level) ([1]; Enhancer:Insulin:lactose 10:90:0, vs insulin without enhancer): (+); Effect (decrease in blood glucose level) ([1]; Enhancer:Insulin:lactose 17.5:82.5:0, vs insulin without enhancer): (+); Effect (decrease in blood glucose level) [1, 6]: +
CCCCCCCC(=O)[O-].[Na+] [Sodium caprylate]			Effect (decrease in blood glucose level) [1, 6]: −
C[C@H](CCC(=O)NCC(=O)[O-])[C@H]1CC[C@H]2[C@@H]3[C@H](O)C[C@@H]4C[C@H](O)CC[C@]4(C)[C@H]3C[C@H](O)[C@]12C.[Na+] [Sodium glycocholate]	effectively enhance polypeptide absorption in the lung	+	
CCCCCCCCCCCC(=O)[O-].[Na+] [Sodium laurate]	perform well		Effect (decrease in blood glucose level) [1, 6]: (+)
CCCCCCCCCCCCCC(=O)[O-].[Na+] [Sodium myristate]	perform well		Effect (decrease in blood glucose level) ([1]; Enhancer:Insulin:lactose 30:70:0, vs insulin without enhancer): +
C[C@H](CCC(=O)NCCS(=O)(=O)O)[C@H]1CC[C@H]2[C@@H]3[C@H](O)C[C@@H]4C[C@H](O)CC[C@]4(C)[C@H]3C[C@H](O)[C@]12C [Sodium taurocholate]	effectively enhance polypeptide absorption in the lung	+	
CC(=O)OC1CC2(C)C(CC(O)C3C4(C)CCC(O)C(C)C4CCC32C)C1=C(CCCC(C)C)C(=O)NCCS(=O)(=O)O (centres unmarked) [Sodium taurodihydrofusidate]	effectively enhance polypeptide absorption in the lung		Effect (decrease in blood glucose level) [1, 4]: +
C[C@H](CCC(=O)[O-])[C@H]1CC[C@H]2[C@@H]3[C@@H](O)C[C@@H]4C[C@H](O)CC[C@]4(C)[C@H]3CC[C@]12C.[Na+] [Sodium ursodeoxycholate]	effectively enhance polypeptide absorption in the lung	+	
O=C(O)CN(CCN(CC(=O)O)CC(=O)O)CC(=O)O [sodium salt of ethylenediaminetetraacetic acid]	ineffective		
Dimethyl-β-cyclodextrin	absorption enhancing effect		Effect (decrease in blood glucose level) ([1]; Enhancer:Insulin:lactose 75:25:0, vs insulin without enhancer): +
Lysine caprate	effective		Effect (decrease in blood glucose level) ([1]; Enhancer:Insulin:lactose 35:65:0, vs insulin without enhancer): +
Lysophosphatidylcholine	effective enhancer	+	
albumin			transport rate across the monolayer [2]: no increase in transport rate
carbonic anhydrase			transport rate across the monolayer [2]: no increase in transport rate
cytochrome C			transport rate across the monolayer [2]: no increase in transport rate
hGH: Human hormone (hGH, MW 22 kD, source Humatrope from Lilly), 3 parts mixed with sodium caprate (1 part), milled powder			uptake of hGH [3]: improvement in the uptake
